For assay [1], the system named is different human and animal tumors. The assay is described as follows: Assay on inhibition of tumor growth, overall statement. It counts as in vivo. Conditions: summary of Table 3; inhibitory activity when Percent Test/Control < 80% T/C. Here is the method:
(§1) Treatment of tumors induced by subcutaneous implantation of in vitro maintained cell cultures was initiated only when well established as progressively growing tumors in the first transplant generation from in vitro culture. "No takes" were culled and animals with tumors of similar size were carefully randomized into control and test groups.
(§2) Analogues were tested against all tumor systems except SCLC's and NSCLC's at a screening dose of 100 μg/injection, s.c., in the flank opposite from the tumor, b.i.d. Lung tumors (SCLC and NSCLC) were tested at 250 μg/injection, s.c., b.i.d. Rat breast tumors were tested at 400 Ag/injection, s.c., b.i.d., an equivalent extrapolation from the mouse dose.
(§3) In vivo transplantation established tumor systems were implanted s.c. as a 1-2 mm^3 mince of tumor tissue. Treatment was initiated within 2 to 3 days of implantation.
(§4) Tumor weights (mgs) from tumor dimensions (mm×mm) were calculated following the formula of a prolate ellipsoid: […]
(§5) L×W^2 /2, where L is the longer of the two measurements.
(§6) Tumor measurements were determined with a vernier caliper three times/week.

The subject of another assay is M5123 hepatoma. Nature of the assay: Subcutaneous tumor assay, M5123 hepatoma. It counts as in vivo, rat. Conditions: 100 μg/injection, s.c., b.i.d. Here is the method: as §1, §2, §3, §4, §5, §6
In assay [2] the test system is NCI-H345 human small cell lung cancer (SCLC). Nature of the assay: Subcutaneous tumor assay, NCI-H345 lung tumor. It counts as in vivo. The conditions noted are these: FIG. 1. How it is done:
as §1, §2, §3, §4, §5, §6
An in vitro maintained human small cell lung cancer
(SCLC) graciously prided by Dr. A. Gazdar. Cell
agglomerates produce slow, progressively growing tumors
in approximately 80% of athymic nude mice
when implanted subcutaneously. Tested as
well established subcutaneous
xenografts in athymic nudes.

The target in the next assay is T1, GRP receptor (Rattus norvegicus, UniProt P52500).
T1 construct: endogenous in cells; host or cells: rat AR42J pancreatic acinar cells (membrane preparation)
The assay is described as follows: Assay on binding to GRP receptor ([125I-Tyr4]bombesin displacement, AR42J cell membranes). Conditions: for pIC50: rat AR42J cell membranes, [125I-Tyr4]bombesin, 30 min, 4° C., read-out: IC50, affinity binding for the GRP receptors; for increase in the affinity for the GRP receptor compared with litorin or Leu-litorin: ratio of IC50 values versus litorin / Leu-litorin. How it is done: Rat AR42J pancreatic acinar cells were cultured in Dulbecco's modified Eagle's medium without antibiotics and supplemented with 10% (vol/vol) fetal calf serum. The incubation atmosphere consisted of 10% C)2 -90% humidified air at 37° C.
Membranes for the bombesin receptor binding assay were obtained by homogenizing AR42J cells (Polytron, setting 6, 15 sec) in ice-cold 50 mM Tris-HCl (Buffer A) and centrifuging twice at 39,000× g (10 min), with an intermediate resuspension in fresh buffer. The final pellets were resuspended in 50 mM Tris-HCl, containing 0.1 mg/ml bacitracin, and 0.1% BSA (Buffer B), and held on ice for the receptor binding assay.
For assay, aliquots (0.4 ml) were incubated with 0.05 ml [^125 I-Tyr^4 ] bombesin (~2200 Ci/mmol, New England Nuclear) and Buffer B, with and without 0.05 ml of unlabeled competing analogs. After a 30 min incubation (4° C.), the bound [^125 I-Tyr^4 ] bombesin was separated from the free by rapid filtration through GF/B filters which had been previously soaked in 0.1% polyethyleneimine. The filters were then washed three times with 5 ml aliquots of ice-cold Buffer A. Specific binding was defined as the total [^125 I-Tyr^4 ] bombesin bound minus that bound in the presence of 1 μM unlabeled bombesin.

For the next assay, the system named is M7777 hepatoma. The assay is described as follows: Subcutaneous tumor assay, M7777 hepatoma. It counts as in vivo, rat. The conditions noted are these: 100 μg/injection, s.c., b.i.d. Here is the method: as §1, §2, §3, §4, §5, §6
The subject of the next assay is CX-5 colon tumor. The assay is described as follows: Subcutaneous tumor assay, CX-5 colon tumor. It counts as in vivo, human. Conditions: 100 μg/injection, s.c., b.i.d. How it is done: as §1, §2, §3, §4, §5, §6
GOB-G Moderately differentiated adenocarcinoma, human, tested
as xenografts in athymic nude females.

Structures are written as SMILES. pIC50: −log10 of the molar value. Non-standard residues stand in square brackets, D forms with d. Residues, ends and D or L forms follow the SMILES beside them. *: point of attachment. Propionyl = CCC(=O)*

From US5767236A, “Linear therapeutic peptides” (Biomeasure, Inc., priority 1995, dated 1998) come the findings set out here.

T1 sequence (P52500 whole entry): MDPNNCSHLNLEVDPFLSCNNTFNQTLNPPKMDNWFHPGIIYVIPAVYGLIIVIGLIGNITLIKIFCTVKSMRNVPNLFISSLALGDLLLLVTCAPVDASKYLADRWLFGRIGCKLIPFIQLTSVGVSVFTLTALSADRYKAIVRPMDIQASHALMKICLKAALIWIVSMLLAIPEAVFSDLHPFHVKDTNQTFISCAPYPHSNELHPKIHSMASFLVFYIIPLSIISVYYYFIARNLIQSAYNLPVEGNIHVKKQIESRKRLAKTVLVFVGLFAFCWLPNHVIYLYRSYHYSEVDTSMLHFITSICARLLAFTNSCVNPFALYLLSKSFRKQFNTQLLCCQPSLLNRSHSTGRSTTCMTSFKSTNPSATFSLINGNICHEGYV

`CSCC[C@H](NC(=O)[C@H](CC(C)C)NC(=O)[C@H](Cc1c[nH]cn1)NC(=O)CNC(=O)[C@@H](NC(=O)[C@H](C)NC(=O)[C@H](Cc1c[nH]c2ccccc12)NC(=O)[C@H](CCC(N)=O)NC(=O)[C@H](N)Cc1ccccc1)C(C)C)C(N)=O` [BIM-26218, H-D-Phe-Gln-Trp-Ala-Val-Gly-His-Leu-Met-NH2]: the “inhibition of the growth of different human and animal tumors” value in assay [1] is “capable of inhibiting the growth”. The “Percent Test/Control (tumor weight)” value with M5123 hepatoma is 70%.

Turning to `CCCC[C@H](NC(=O)[C@H](Cc1ccccc1)NC(=O)[C@H](Cc1c[nH]cn1)NC(=O)CNC(=O)[C@@H](NC(=O)[C@H](C)NC(=O)[C@H](Cc1c[nH]c2ccccc12)NC(=O)[C@H](CCC(N)=O)NC(=O)[C@H](N)Cc1ccccc1)C(C)C)C(N)=O` [BIM-26224, H-D-Phe-Gln-Trp-Ala-Val-Gly-His-Phe-Nle-NH2], the “growth inhibitory effect on small cell lung carcinoma (SCLC)” value in assay [2] is “capable of inhibiting”. For the same molecule, the pIC50 on GRP receptor was 9.15.

As for `CC(=O)N[C@@H](Cc1c[nH]cn1)C(=O)N[C@@H](Cc1c[nH]c2ccccc12)C(=O)N[C@@H](C)C(=O)N[C@H](C(=O)NCC(=O)N[C@@H](Cc1c[nH]cn1)C(=O)N[C@@H](CC(C)C)C(=O)N[C@@H](CC(C)C)C(N)=O)C(C)C` [BIM-26225, Acetyl-His-Trp-Ala-Val-Gly-His-Leu-Leu-NH2] (Ac-HWAVGHLL-NH2), the “inhibition of the growth of different human and animal tumors” value in assay [1] was “capable of inhibiting the growth”. Moreover, in the assay on M7777 hepatoma, the “Percent Test/Control (tumor weight)” value was determined as 52%. With `CCC(=O)N[C@@H](Cc1c[nH]cn1)C(=O)N[C@@H](Cc1c[nH]c2ccccc12)C(=O)N[C@@H](C)C(=O)N[C@H](C(=O)N[C@H](C)C(=O)N[C@@H](Cc1c[nH]cn1)C(=O)N[C@@H](CC(C)C)C(=O)N[C@@H](CC(C)C)C(N)=O)C(C)C` [BIM-26247, Propionyl-His-Trp-Ala-Val-D-Ala-His-Leu-Leu-NH2] (Propionyl-HWAV[dA]HLL-NH2), in assay [1], the “inhibition of the growth of different human and animal tumors” value is on record as “capable of inhibiting the growth”. Moreover, the “Percent Test/Control (tumor weight)” value with CX-5 colon tumor was 54%. Consider `CSCC[C@H](NC(=O)[C@H](Cc1ccccc1)NC(=O)[C@H](Cc1c[nH]cn1)NC(=O)CNC(=O)[C@@H](NC(=O)[C@H](C)NC(=O)[C@H](Cc1c[nH]c2ccccc12)NC(=O)[C@H](CCC(N)=O)NC(=O)[C@H](N)Cc1ccccc1)C(C)C)C(N)=O` [BIM-26269, H--D-Phe--Gln--Trp--Ala--Val--Gly--His--Phe--Met--NH2], for which the pIC50 at GRP receptor was 8.85. On to `CCCC[C@H](NC(=O)[C@H](Cc1ccccc1)NC(=O)[C@H](Cc1c[nH]cn1)NC(=O)CNC(=O)[C@@H](NC(=O)[C@H](C)NC(=O)[C@H](Cc1c[nH]c2ccccc12)NC(=O)[C@H](CCC(N)=O)NC(=O)[C@H](N)Cc1ccc(O)cc1)C(C)C)C(N)=O` [BIM-26270, H--D-Tyr--Gln--Trp--Ala--Val--Gly--His--Phe--Nle--NH2], for which, at GRP receptor, the pIC50 was 10.00 and the “increase in the affinity for the GRP receptor compared with litorin or Leu-litorin” value lay within 24 to 230 times. For `CSCC[C@H](NC(=O)[C@H](Cc1ccccc1)NC(=O)[C@H](Cc1c[nH]cn1)NC(=O)CNC(=O)[C@@H](NC(=O)[C@H](C)NC(=O)[C@H](Cc1c[nH]c2ccccc12)NC(=O)[C@H](CCC(N)=O)NC(=O)[C@H](N)Cc1ccc(O)cc1)C(C)C)C(N)=O` [BIM-26271, H--D-Tyr--Gln--Trp--Ala--Val--Gly--His--Phe--Met--NH2], in that order: 9.30 and 5- to 15 times.

For the molecule `CSCC[C@H](NC(=O)[C@H](CC(C)C)NC(=O)[C@H](Cc1c[nH]cn1)NC(=O)CNC(=O)[C@@H](NC(=O)[C@H](C)NC(=O)[C@H](Cc1c[nH]c2ccccc12)NC(=O)[C@H](CCC(N)=O)NC(=O)[C@H](N)Cc1ccc(O)cc1)C(C)C)C(N)=O` [BIM-26274, H--D-Tyr--Gln--Trp--Ala--Val--Gly--His--Leu--Met--NH2], on GRP receptor, the pIC50 is 9.52. Consider `CC(C)C[C@H](NC(=O)[C@H](CC(C)C)NC(=O)[C@H](Cc1c[nH]cn1)NC(=O)CNC(=O)[C@@H](NC(=O)[C@H](C)NC(=O)[C@H](Cc1c[nH]c2ccccc12)NC(=O)[C@H](CCC(N)=O)NC(=O)[C@H](N)Cc1ccc(O)cc1)C(C)C)C(N)=O` [BIM-26278, H--D-Tyr--Gln--Trp--Ala--Val--Gly--His--Leu--Leu--NH2], for which, at GRP receptor, the pIC50 is 8.82 and the “increase in the affinity for the GRP receptor compared with litorin or Leu-litorin” value is listed as 5- to 15 times.

For the molecule `CCCC[C@H](NC(=O)[C@H](CC(C)C)NC(=O)[C@H](Cc1c[nH]cn1)NC(=O)CNC(=O)[C@@H](NC(=O)[C@H](C)NC(=O)[C@H](Cc1c[nH]c2ccccc12)NC(=O)[C@H](CCC(N)=O)NC(=O)[C@H](N)Cc1ccc(O)cc1)C(C)C)C(N)=O` [BIM-26279, H--D-Tyr--Gln--Trp--Ala--Val--Gly--His--Leu--Nle--NH2], the pIC50 on GRP receptor was 8.77.

On to `CC(C)C[C@H](NC(=O)[C@H](Cc1ccccc1)NC(=O)[C@H](Cc1c[nH]cn1)NC(=O)CNC(=O)[C@@H](NC(=O)[C@H](C)NC(=O)[C@H](Cc1c[nH]c2ccccc12)NC(=O)[C@H](CCC(N)=O)NC(=O)[C@H](N)Cc1ccc(O)cc1)C(C)C)C(N)=O` [BIM-26288, H--D-Tyr--Gln--Trp--Ala--Val--Gly--His--Phe--Leu--NH2], for which the pIC50 at GRP receptor is 9.15.

By pIC50 is commonly meant the negative decadic logarithm of the IC50, by convention in mol/L.
